Test results published in patent publication US20230203060A1 (GENFLEET THERAPEUTICS (SHANGHAI) INC., priority 2020, published 2023).
pIC50: −log10 of the molar value. Blank lines part the entries; values can stand above or below the compound they belong to.

Columns and labels:
[1] = tested on: KRAS G12C mutant NCI-H358 cells; experiment: Cell proliferation inhibition experiment, 3D spheroid, CellTiter-Glo, NCI-H358; format: cell-based, human; settings: Homo sapiens, NCI-H358, 120 h, NCI-H358 (KRAS G12C mutant) 3D spheroid, 5 days with compound, CellTiter-Glo; read-out: H358 IC50
How it was run: (§1)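 Luminescence (CellTiter-Glo, 30 min incubation) was read after 5 days of compound treatment of overnight-formed spheroids of 800 H358 or 400 A549 cells in 2% FBS medium. Inhibition relative to DMSO and blank controls was fitted with a four-parameter model to yield IC50.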

[2] = tested on: phosphorylated ERK downstream of KRAS G12C in MIA PaCa2 cells; experiment: Cell p-ERK detection experiment (HTRF) in MIA PaCa2; format: cell-based, human; settings: Homo sapiens, MIA PaCa-2, 2 h, MIA PaCa2 cells, 2 hours with compound, Advance ERK phospho-T202/Y204 HTRF kit; read-out: p-ERK IC50
Description: Raw materials and instruments: MIA PaCa-2 purchased from ATCC; article number: CRL-1420; batch number: 63143594; DMEM purchased from Gibco; article number: 11995-065; batch number: 2186878; FBS purchased from Gibco; article number: 10099-141; batch number: 2109290CP; Horse serum purchased from Gibco; article number: 16050-122; batch number: 1818976; Trypsin-EDTA purchased from Gibco; article number: 25200-072; batch number: 2085552; PS purchased from Gibco; article number: 15140-122; batch number: 2145451; DMSO purchased from VWR AMRESCO; article number: 0231-500ML; batch number: 0457C072; 96-well cell culture plate purchased from Corning; article number: 3599; batch number: 22718601; white opaque 96-well plate purchased from Cisbio; article number: 66PL96025; batch number: N°05; Advance ERK phospho-T202/Y204 kit purchased from Cisbio; article number: 64AERPEH; batch number: 11D; microplate reader purchased from PerkinElmer; model: Envision MLD2105-0020; equipment number 1050369.
MIA PaCa2 was a KRAS G12C mutant human pancreatic cancer cell line cultured in 10% FBS+2.5% Horse serum DMEM culture medium. Cells at logarithmic growth stage were taken, digested with trypsin-EDTA, then collected and counted, and 2.5E4 cells were inoculated in a 96-well cell culture plate and cultured overnight. A 3.16-fold gradient concentration stock solution of 1000× compound was prepared with DMSO, and diluted 200-fold to 5× compound stock solution with culture medium. On the second day after cell inoculation, 5× compound stock solution was added to each cell culture well, with a final concentration of 1× and a DMSO content of 0.1%. DMSO was used as experimental control (control). After the compound was added and cultured for two hours, the residual culture medium was removed. 50 μL of cell lysate (from Advance ERK phospho-T202/Y204 kit, the same below) was added to each well, mixed well and incubated for 30 minutes, and then 16 μL of the mixed solution was transferred to a white opaque 96-well plate, and 16 μL of cell lysate was added to the blank wells. After the transfer was completed, 4 μL of p-ERK HTRF antibody (from Advance ERK phospho-T202/Y204 kit) mixture was added to each well, incubated for 4 hours, and the fluorescence value was read with the microplate reader. The inhibition rate of the compound IR (%)=(RLU control -RLU compound)/(RLU control-RLU blank)×100% was calculated. The gradient dilution concentration of the compound and the corresponding cell proliferation inhibition rate were fitted by Prism 8 four-parameter method, and the IC50 value was calculated. The compounds prepared in the above embodiments of the present disclosure have inhibitory activity of 0.0001 μM to 1 μM on the phosphorylated ERK level downstream of the cell channel of KRAS G12C protein mutant; some compounds have inhibitory activity of 0.001 μM to 1 μM or 0.001 μM to 0.5 μM on phosphorylated ERK level downstream of cell channel of KRAS G12C protein mutant.

KRAS G12C = biological target: T1, KRAS G12C (Homo sapiens, UniProt P01116, G12C); experiment: KRAS G12C NEA-HTRF experiment (SOS1-catalyzed displacement of GDP by GTP); format: biochemical
T1 construct: purchased Reactionbiology
T1 sequence (P01116 1-188 isoform P01116-2 G12C): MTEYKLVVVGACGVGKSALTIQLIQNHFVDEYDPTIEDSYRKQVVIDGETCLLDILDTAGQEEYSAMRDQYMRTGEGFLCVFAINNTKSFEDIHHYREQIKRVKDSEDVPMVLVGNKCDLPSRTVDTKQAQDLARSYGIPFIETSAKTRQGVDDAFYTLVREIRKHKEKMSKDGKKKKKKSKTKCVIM
Description: Raw materials and instruments: KRAS G12C (his-tag) purchased from Reactionbiology; batch number 3496; SOS1 purchased from Reactionbiology; batch number: 3501; GTP purchased from Sigma; article number: G8877; batch number: SLBV1450; Tris-HC1 purchased from Sigma; EDTA purchased from absin; article number: abs42017668; batch number: JE20; NaCl purchased from Sigma; article number: 55886; batch number: SLBW4193; MgCl2 purchased from Shyuanye; article number: R21455; batch number: L07S9G69806; HEPES purchased from Life Technologies; article number: 15630-080; batch number: 2037042; DTT purchased from Thermo Fisher; article number: R0862; batch number: 00608918; Triton X-100 purchased from Sigma; article number: T8787-100 ML; batch number: SLBW7103; DY647-labeled GDP purchased from Jena Bioscience; article number: NU-840-647P1; batch number: BM019-045; Anti-6H1S-Tb purchased from Cisbio; article number: 61H12TLA; batch number: 13A; Bradford Assay Kit purchased from Thermo Fisher; article number: 23246; batch number: UG287474; white opaque 96-well plate purchased from Cisbio; article number: 66PL96025; batch number: N°06; NAP-5 column purchased from GE Healthcare; article number: 17085301; batch number: 16995164; mircoplate reader purchased from PerkinElmer; model: Envision MLD2105-0020; equipment number 1050369. The effect of compounds on SOS1-catalyzed displacement of GDP by GTP on KRAS protein was examined using a homogeneous time-resolved fluorescence (HTRF) method. 30 μM 6×his-tagged KRAS G12C recombinant protein was incubated with 80 μM fluorescent dye DY647-labeled GDP in labeling buffer (1 mM DTT, 7.5 mM EDTA, 25 mM Tris-HCl, 45 mM NaCl) at 20° C. in the dark for 2 hours, purified using NAP-5 column, and then protein quantification was performed with Bradford Assay Kit after purification to determine the concentration of KRAS […] 3.16-fold gradient concentration stock solution of 1000× compound was prepared with DMSO, and diluted 250-fold to 4× compound stock solution with reaction buffer (40 mM HEPES, 10 mM MgCl2, 1 mM DTT, 0.002% Triton X-100). KRAS G12C-GDP/Tb working solution (40 nM KRAS […] Tb) and SOS1/GTP working solution (0.2 μM SOS1, 200 μM GTP) were prepared using the reaction buffer. A white opaque 96-well plate was taken, and 5 μL of 4× compound stock solution and 10 μL of KRAS G12C-GDP/Tb working solution were added to each well. 5 μL of reaction buffer instead of 4x compound stock solution was used in the control well. After incubation in the dark for 15 minutes at 20° C., 5μL of SOS1/GTP working solution was added thereto, and the fluorescence value (excitation wavelength: 320 nm, emission wavelength: 615 nm and 665 nm) was read after incubating at 20° C. in the dark for 2 hours. Another T0 group was set up with 10 μL reaction buffer+10 μL KRAS G12C-GDP/Tb working solution, and the fluorescence value was read directly by the microplate reader. The fluorescence signal ratio RLU=(665 nm signal/615 nm signal)×10^4; and the compound inhibition rate IR (%)=(RLUcompound-RLUcontrol)/(RLUT0-RLUcontrol)×100% were calculated. The IC50 value was calculated by fitting the gradient dilution concentration of compound and the corresponding inhibition rate with the four-parameter method. The NEA activity of the compounds prepared in the above embodiments of the present disclosure was 0.0001 μM to 1 μM; the inhibitory activity of some compounds on KRAS G12C mutant MIA PaCa-2 cells was 0.001 μM to 0.5 μM or 0.001 μM to 0.1 μM.

[3] = tested on: A549 cells (KRAS G12S mutant); experiment: Cell proliferation inhibition experiment, 3D spheroid, CellTiter-Glo, A549; format: cell-based, human; settings: Homo sapiens, A549, 120 h, A549 (KRAS G12S mutant) 3D spheroid, 5 days with compound, CellTiter-Glo; read-out: A549 IC50
How it was run: as §1

Compound: C=CC(=O)N1CCN2C(=O)c3c(N4CCN5CCC[C@@H]5C4)nc(-c4c(O)cccc4F)c(Cl)c3OC[C@H]2C1 [Z317-2, (6aR)-8-acryloyl-4-chloro-3-(2-fluoro-6-hydroxyphenyl)-1-((R)-hexahydropyrrolo[1,2-a]pyrazin-2(1H)-yl)-6,6a,7,8,9,10-hexahydro-12H-pyrazino[2,1-c]pyrido[3,4-f][1,4]oxazepin-12-one]
pIC50 [1]: 7.63 | pIC50 [2]: 6.79

Compound: C=CC(=O)N1CCN2C(=O)c3c(N4C[C@@H](N5CC(F)C5)CC4(C)C)nc(-c4ccccc4F)c(F)c3OC[C@H]2C1 [Z654-1, (R)-8-acryloyl-4-fluoro-1-((S)-4-(3-fluoroazetidin-1-yl)-2,2-dimethylpyrrolidin-1-yl)-3-(2-fluorophenyl)-6,6a,7,8,9,10-hexahydro-12H-pyrazino[2,1-c]pyrido[3,4-f][1,4]oxazepin-12-one]
pIC50 [2]: 5.76 | pIC50 (KRAS G12C): 5.74

Compound: C=CC(=O)N1CCN2C(=O)c3c(N4CC(N5CC(C(F)(F)F)C5)CC4(C)C)nc(-c4ccccc4F)c(Cl)c3OC[C@H]2C1 (single isomer, unassigned) [Z608-2]
pIC50 [2]: 6.54 | pIC50 (KRAS G12C): 7.12

Compound: C=CC(=O)N1CCN2C(=O)c3c(N4C[C@H](NCC(F)(F)F)CC4(C)C)nc(-c4ccccc4F)c(Cl)c3OC[C@H]2C1 (single isomer, unassigned) [Z662-2]
pIC50 [2]: 6.23 | pIC50 (KRAS G12C): 6.63

Next, values leading:

pIC50 [1]: 7.54 | pIC50 [2]: 6.84
Compound: C=CC(=O)N1CCN2C(=O)c3c(N4CCN5CCCC5(C)C4)nc(-c4c(O)cccc4F)c(Cl)c3OC[C@H]2C1 (stereo partly drawn) [Z339, (6aR)-8-acryloyl-4-chloro-3-(2-fluoro-6-hydroxyphenyl)-1-(8a-methyloctahydropyrrolo[1,2-c]pyrazin-6 (2H)-one-1-yl)-6,6a,7,8,9,10-hexahydro-12H-pyrazino[2,1-c]pyrido[3,4-f][1,4]oxazepin-12-one]

pIC50 [2]: 6.59 | pIC50 (KRAS G12C): 6.47
Compound: C=CC(=O)N1CCN2C(=O)c3c(N4C[C@H](C)N(C)C[C@@H]4C)nc(-c4ccccc4F)c(Cl)c3OC[C@H]2C1 [Z483, (R)-8-acryloyl-4-chloro-3-(2-fluorophenyl)-1-((2S,5S)-2,4,5-trimethylpiperazin-1-yl)-6,6a,7,8,9,10-hexahydro-12H-pyrazino[2,1-c]pyrido[3,4-f][1,4]oxazepin-12-one]

pIC50 [1]: 7.66 | pIC50 [2]: 6.74
Compound: C=CC(=O)N1CCN2C(=O)c3c(N4CCCC4(C)C)nc(-c4ccccc4F)c(Cl)c3OC[C@H]2C1 [Z147, (R)-8-acryloyl-4-chloro-1-(2,2-dimethylpyrrolidin-1-yl)-3-(2-fluorophenyl)-6,6a,7,8,9,10-hexahydro-12H-pyrazino[2,1-c]pyrido[3,4-f][1,4]oxazepin-12-one]

pIC50 [1]: 8.15 | pIC50 [3]: 5.06 | pIC50 [2]: 7.14
Compound: C=CC(=O)N1CCN2C(=O)c3c(Oc4ccccc4C(C)C)nc(-c4c(O)cccc4F)c(Cl)c3OC[C@H]2C1 [Z18, (6aR)-8-acryloyl-4-chloro-3-(2-fluoro-6-hydroxyphenyl)-1-(2-isopropylphenoxy)-6,6a,7,8,9,10-hexahydro-12H-pyrazino[2,1-c]pyrido[3,4-f][1,4]oxazepin-12-one]

pIC50 [2]: 7.03 | pIC50 (KRAS G12C): 7.50
Compound: C=CC(=O)N1CCN2C(=O)c3c(N4CC(N(C)CC)CC4(C)C)nc(-c4ccccc4F)c(Cl)c3OC[C@H]2C1 (stereo partly drawn) [Z657, (6aR)-8-acryloyl-4-chloro-1-(4-(methylethylamine)-2,2-dimethylpyrrolidin-1-yl)-3-(2-fluorophenyl)-6,6a,7,8,9,10-hexahydro-12H-pyrazino[2,1-c]pyrido[3,4-f][1,4]oxazepin-12-one]
